Laboratory results reported in PMC12751012, “Nanoscale Direct-to-Biology Optimization and Structural Insights into Selective S. aureus TrmD Inhibitors” (Journal of Medicinal Chemistry, 2025).

Target: T1, S. aureus TrmD (Staphylococcus aureus, UniProt Q2FZ43)
T1 construct: made in house; host or cells: E. coli BL21
T1 sequence (Q2FZ43 1-245): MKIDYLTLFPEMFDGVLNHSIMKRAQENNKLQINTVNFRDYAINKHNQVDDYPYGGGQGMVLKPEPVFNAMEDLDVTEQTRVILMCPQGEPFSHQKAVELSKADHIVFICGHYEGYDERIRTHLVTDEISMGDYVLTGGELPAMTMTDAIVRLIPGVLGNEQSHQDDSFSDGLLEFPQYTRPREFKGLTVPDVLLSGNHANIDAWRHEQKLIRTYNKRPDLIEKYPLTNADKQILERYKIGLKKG
Experiment: nanoSAR direct-to-biology FP displacement screening of crude triazoles
Format: binding
Conditions: crude triazole at 1 μM, assuming full conversion; 500 nM TrmD, 10 nM tracer 4; read-out: % displaced tracer
Excerpt: Next, we conducted an S. aureus TrmD-targeting nanoSAR study. For this, alkyne 7 was reacted on a 96 nmol scale with an in-house diversity-oriented azide library (N = 320, mean pairwise Tanimoto similarity = 0.11) designed to cover a large chemical fragment space, generating a panel of 320 crude triazoles ready for FP assay investigation. The composition of the azide library is designed to be chemically diverse in several categories, including physicochemical properties such as polar surface area, lipophilicity, and the number of hydrogen bond donors and acceptors, as well as structural features like the number of aromatic rings (Figure S23). A complete list of chemical structures included in the azide library can be found in Table S4. In situ reaction conditions for CuAAC were adapted from Gehrtz et al., utilizing CuSO4, which is reduced in situ to Cu(I) by sodium ascorbate and stabilized by TBTA. Degassed water and DMSO (1:1) were used as solvents to prevent the oxidation from Cu(I) to Cu(II). For the synthesis of the triazole library, a master mix was prepared, containing all reaction components except the azides. All reactions were started by the addition of the respective azide in 24 μL at a final product concentration of 4 mM (96 nmol). Reaction mixtures were incubated for 16 h at room temperature and under an argon atmosphere in sealed 96-well plates.
For FP assay screening, we used 500 nM of S. aureus TrmD and 10 nM of tracer 4 in a total volume of 40 μL in 96-well plates. We performed control measurements and defined 10 nM of tracer 4 in buffer as 100% displacement and the DMSO control as 0% tracer displacement. […] The results of the FP screening were visualized in a waterfall plot and plate-based heatmaps (Figure , Figure S3).
Fluorescence polarization (FP) assays were performed as follows. The assays for H. influenzae TrmD have been described previously. All assays were conducted in technical triplicate using black 96-well half area plates. For the FP assays, a tracer (20 nM Cy5TPD for E. coli and H. influenzae TrmD, 10 nM tracer 4 for S. aureus TrmD) was mixed with the respective enzyme (2 μM E. coli TrmD, 2 μM H. influenzae TrmD, 500 nM S. aureus TrmD) in buffer (E. coli and H. influenzae TrmD: 50 mM HEPES, 500 mM NaCl, 5% Glycerol, pH 7.5, S. aureus TrmD: 40 mM Tris HCl, 100 mM NaCl, 10 mM MgCl2, 5% Glycerol, pH 7.5). The compounds were added in varying concentrations for K D-value determination. […] The Z-factor for tracer 4 was determined by measuring 48 replicates of the free tracer (positive controls, PC) and 48 replicates of a mixture of enzyme and tracer (negative controls, NC). The Z-factor is defined in terms of the means (μ) and standard deviations (σ) of the positive and negative controls and calculated as Z = 1–(3*(σnc + σpc)/(μnc–μpc)). […] Polarization values (mP) were determined from polarization-specific parallel and orthogonal fluorescence intensities. K D-values were calculated in GraphPad Prism 8.0.1 using the four-parameter Hill equation: y(% tracer bound) = bottom + ([ligand]-slope) × (top–bottom)/([ligand]-slope + K Dslope).
A commercial azide diversity library (Enamine) containing 320 azides at a concentration of 100 mM in DMSO in a 96-well tube rack was employed for this nanoSAR study. For the reaction of the azides with alkyne 7 via CuAAC, a master mix was prepared. […] The solvents were degassed with argon to avoid oxidation of the copper(I) during the reaction. To each well of a 96-well PCR plate (Applied Biosystems MicroAmp) were added 23 μL of the master mix and 1 μL of the 100 mM azide stock. The final concentrations in the Mastermix were: 8.7 mM sodium ascorbate (8.3 mM in reaction well), 1.1 mM TBTA (1.0 mM in reaction well), 4.3 mM 7 (4.1 mM in reaction well), 1.3 mM CuSO4×5 H2O (1.2 mM in reaction well).

| SMILES | inhibition at 1 µM [%] |
| --- | --- |
| O=c1[nH]cnc2[nH]cc(-c3cn(C[C@@H]4CCCC4(F)F)nn3)c12 [Compound 01F12, F[C@@]1(F)[C@H](CN2N=NC(C=3C=4C(=O)NC=NC4NC3)=C2)CCC1] | 79 |
| NS(=O)(=O)c1ccccc1-n1cc(-c2c[nH]c3nc[nH]c(=O)c23)nn1 [Compound 01G01, S(=O)(=O)(N)c1c(N2N=NC(C=3C=4C(=O)NC=NC4NC3)=C2)cccc1] | 42 |
| CCc1nc(C)c(Cn2cc(-c3c[nH]c4nc[nH]c(=O)c34)nn2)o1 [Compound 01G02, O=C1NC=NC=2NC=C(C=3N=NN(C3)CC=4OC(=NC4C)CC)C12] | 71 |
| CC(C)CN1CCO[C@H](Cn2cc(-c3c[nH]c4nc[nH]c(=O)c34)nn2)C1 [Compound 01G03, O=C1NC=NC=2NC=C(C=3N=NN(C3)C[C@H]4OCC[N@H+](C4)CC(C)C)C12] | 46 |
| O=c1[nH]cnc2[nH]cc(-c3cn(-c4ccc5c(c4)CNCC5)nn3)c12 [Compound 01G04, O=C1NC=NC=2NC=C(C=3N=NN(c4cc5c(cc4)CC[NH2+]C5)C3)C12] | 33 |
| O=c1[nH]cnc2[nH]cc(-c3cn(CCCO)nn3)c12 [Compound 01G05, O=C1NC=NC=2NC=C(C=3N=NN(C3)CCCO)C12] | 32 |
| O=c1[nH]cnc2[nH]cc(-c3cn(Cc4cc(C(F)F)on4)nn3)c12 [Compound 01G06, FC(F)C=1ON=C(C1)CN2N=NC(C=3C=4C(=O)NC=NC4NC3)=C2] | 38 |
| O=C(c1ccco1)n1cc(-c2c[nH]c3nc[nH]c(=O)c23)nn1 [Compound 01G07, O=C(N1N=NC(C=2C=3C(=O)NC=NC3NC2)=C1)C=4OC=CC4] | 28 |
| COC(=O)c1ccc(Cn2cc(-c3c[nH]c4nc[nH]c(=O)c34)nn2)o1 [Compound 01G08, O=C(OC)C=1OC(=CC1)CN2N=NC(C=3C=4C(=O)NC=NC4NC3)=C2] | 44 |
| O=c1[nH]cnc2[nH]cc(-c3cn(-c4ccc(O)cc4)nn3)c12 [Compound 01G09, O=C1NC=NC=2NC=C(C=3N=NN(c4ccc(O)cc4)C3)C12] | 23 |
| O=c1[nH]cnc2[nH]cc(-c3cn([C@@H]4C[C@H]5CC[C@@H](C4)N5)nn3)c12 [Compound 01G10, O=C1NC=NC=2NC=C(C=3N=NN(C3)[C@@H]4C[C@@H]5[NH2+][C@H](C4)CC5)C12] | 44 |
| C[C@H](c1ccc(F)cc1Cl)n1cc(-c2c[nH]c3nc[nH]c(=O)c23)nn1 [Compound 01G11, Clc1c(ccc(F)c1)[C@H](N2N=NC(C=3C=4C(=O)NC=NC4NC3)=C2)C] | 56 |
| CS(=O)(=O)NC(=O)Cn1cc(-c2c[nH]c3nc[nH]c(=O)c23)nn1 [Compound 01G12, S(=O)(=O)(NC(=O)CN1N=NC(C=2C=3C(=O)NC=NC3NC2)=C1)C] | 27 |
| CC(F)(F)c1cccc(Cn2cc(-c3c[nH]c4nc[nH]c(=O)c34)nn2)n1 [Compound 01H01, FC(F)(c1nc(ccc1)CN2N=NC(C=3C=4C(=O)NC=NC4NC3)=C2)C] | 63 |
| CC1(Cn2cc(-c3c[nH]c4nc[nH]c(=O)c34)nn2)COC1 [Compound 01H02, O=C1NC=NC=2NC=C(C=3N=NN(C3)CC4(COC4)C)C12] | 58 |
| Cc1ccc(Cn2cc(-c3c[nH]c4nc[nH]c(=O)c34)nn2)o1 [Compound 01H03, O=C1NC=NC=2NC=C(C=3N=NN(C3)CC=4OC(=CC4)C)C12] | 33 |
| O=c1[nH]cnc2[nH]cc(-c3cn(Cc4cc(C(F)(F)F)on4)nn3)c12 [Compound 01H04, FC(F)(F)C=1ON=C(C1)CN2N=NC(C=3C=4C(=O)NC=NC4NC3)=C2] | 22 |

| SMILES | inhibition at 1 µM [%] |
| --- | --- |
| O=C1c2ccccc2C(=O)N1CCn1cc(-c2c[nH]c3nc[nH]c(=O)c23)nn1 [Compound 01H05, O=C1N(C(=O)c2c1cccc2)CCN3N=NC(C=4C=5C(=O)NC=NC5NC4)=C3] | 13 |
| Cc1nc2cc(-n3cc(-c4c[nH]c5nc[nH]c(=O)c45)nn3)ccc2s1 [Compound 01H06, S1c2c(N=C1C)cc(N3N=NC(C=4C=5C(=O)NC=NC5NC4)=C3)cc2] | 26 |
| O=c1[nH]cnc2[nH]cc(-c3cn(CCOC4CCSCC4)nn3)c12 [Compound 01H07, S1CCC(OCCN2N=NC(C=3C=4C(=O)NC=NC4NC3)=C2)CC1] | 54 |
| O=C1CC[C@@H](N2Cc3cc(-n4cc(-c5c[nH]c6nc[nH]c(=O)c56)nn4)ccc3C2=O)C(=O)N1 [Compound 01H08, O=C1N([C@H]2C(=O)NC(=O)CC2)Cc3c1ccc(N4N=NC(C=5C=6C(=O)NC=NC6NC5)=C4)c3] | 23 |
| CCN(CC)CCn1cc(-c2c[nH]c3nc[nH]c(=O)c23)nn1 [Compound 01H09, O=C1NC=NC=2NC=C(C=3N=NN(C3)CC[NH+](CC)CC)C12] | 27 |
| O=c1[nH]cnc2[nH]cc(-c3cn(-c4cc(F)cc(Cl)c4)nn3)c12 [Compound 01H10, Clc1cc(F)cc(N2N=NC(C=3C=4C(=O)NC=NC4NC3)=C2)c1] | 12 |
| O=c1[nH]cnc2[nH]cc(-c3cn(CCN4CCC(O)CC4)nn3)c12 [Compound 01H11, O=C1NC=NC=2NC=C(C=3N=NN(C3)CC[N@H+]4CC[C@H](O)CC4)C12] | 38 |
| CCOP(=O)(CCCn1cc(-c2c[nH]c3nc[nH]c(=O)c23)nn1)OCC [Compound 01H12, P(=O)(OCC)(OCC)CCCN1N=NC(C=2C=3C(=O)NC=NC3NC2)=C1] | 33 |
| COc1ccnc(-n2cc(-c3c[nH]c4nc[nH]c(=O)c34)nn2)n1 [Compound 02A01, O=C1NC=NC=2NC=C(C=3N=NN(c4nc(OC)ccn4)C3)C12] | 19 |
| NC[C@H]1CCC[C@@H](Cn2cc(-c3c[nH]c4nc[nH]c(=O)c34)nn2)C1 [Compound 02A02, O=C1NC=NC=2NC=C(C=3N=NN(C3)C[C@H]4C[C@@H](C[NH3+])CCC4)C12] | 31 |
| CC(C)CSCCCn1cc(-c2c[nH]c3nc[nH]c(=O)c23)nn1 [Compound 02A03, S(CC(C)C)CCCN1N=NC(C=2C=3C(=O)NC=NC3NC2)=C1] | 35 |
| COc1ccc(C(F)(F)F)cc1-n1cc(-c2c[nH]c3nc[nH]c(=O)c23)nn1 [Compound 02A04, FC(F)(F)c1cc(N2N=NC(C=3C=4C(=O)NC=NC4NC3)=C2)c(OC)cc1] | 20 |
| O=c1[nH]cnc2[nH]cc(-c3cn(-c4cccc5cn[nH]c45)nn3)c12 [Compound 02A05, O=C1NC=NC=2NC=C(C=3N=NN(c4c5NN=Cc5ccc4)C3)C12] | 1.22 |
| O=c1[nH]cnc2[nH]cc(-c3cn(S(=O)(=O)c4ccc5c(c4)CCO5)nn3)c12 [Compound 02A06, O=S(C1=CC2=C(OCC2)C=C1)(N3N=NC(C4=CNC(N=CN5)=C4C5=O)=C3)=O] | -1.83 |
| O=c1[nH]cnc2[nH]cc(-c3cn(C[C@H]4COc5ccccc5O4)nn3)c12 [Compound 02A07, O=C1NC=NC=2NC=C(C=3N=NN(C3)C[C@@H]4Oc5c(OC4)cccc5)C12] | 81 |
| O=c1[nH]cnc2[nH]cc(-c3cn(C4CCCCC4)nn3)c12 [Compound 02A08, O=C1NC=NC=2NC=C(C=3N=NN(C3)C4CCCCC4)C12] | 11 |
| O=c1[nH]cnc2[nH]cc(-c3cn(Cc4cc(=O)n5nccc5[nH]4)nn3)c12 [Compound 02A09, O=C1N2N=CC=C2NC(=C1)CN3N=NC(C=4C=5C(=O)NC=NC5NC4)=C3] | 12 |
